Publication PMC11599901, “Enhancing the solubility and antibacterial activity of novel molecular salts of enrofloxacin drug with isomeric pyridinedicarboxylic acids” (Scientific Reports, 2024)
Converted amounts (≈) assume the structure as drawn. Where two headings read alike, the source gives them in different places.

Tests used:
[1] = tested on: Escherichia coli ATCC 25922; test: Broth microdilution antibacterial activity (MIC/MBC), CLSI M07; assay type: cell-based; settings: 24 h at 37 °C; for MBC (minimal bactericidal concentration) / MIC (minimal inhibitory concentration): Mueller-Hinton medium
Experimental: (§1) The antibacterial activity of the enrofloxacin salts was determined against two Gram-positive strains (Staphylococcus aureus ATCC 6358, Streptococcus pyogenes ATCC 19615) and two Gram-negative bacteria (Escherichia coli ATCC 25922, Pseudomonas aeruginosa ATCC 15442). The determination was performed in accordance with Clinical and Laboratory Standards Institute (CLSI) standard […] for antimicrobial susceptibility testing of aerobic bacteria. The assessment was performed using the broth microdilution method with Mueller-Hinton medium. The tested samples were accompanied by biotic controls, i.e. without the addition of newly synthesized compounds, and abiotic controls, i.e. without the addition of microorganisms. All probes were incubated for 24 h at 37 °C. Microbial growth was measured using a microplate reader (Multiskan FC Microplate Photometer, ThermoFisher Scientific, Pudong, Shanghai, China) at λ = 630 nm. The follow were determined: the minimal inhibitory concentration (MIC), defined as the lowest concentration of a compound that prevents visible growth of bacteria, and minimal bactericidal concentration (MBC), defined as the lowest concentration of a substance that completely limits the viability of microorganisms.

[2] = tested on: Pseudomonas aeruginosa ATCC 15442; test: as above; assay type: cell-based; settings: 24 h at 37 °C; for MBC (minimal bactericidal concentration) / MIC (minimal inhibitory concentration): Mueller-Hinton medium
Experimental: as §1

[3] = tested on: Staphylococcus aureus ATCC 6358; test: as above; assay type: cell-based; settings: 24 h at 37 °C; for MBC (minimal bactericidal concentration) / MIC (minimal inhibitory concentration): Mueller-Hinton medium
Experimental: as §1

[4] = tested on: Streptococcus pyogenes ATCC 19615; test: as above; assay type: cell-based; settings: 24 h at 37 °C; for MBC (minimal bactericidal concentration) / MIC (minimal inhibitory concentration): Mueller-Hinton medium
Experimental: as §1

[5] = Water solubility by the gravimetric method; assay type: physicochemical; settings: 25 °C
Experimental: Temperature was maintained using a calibrated UltraUB 20 F with a DLK 25 circulating cooler (Lauda, Germany). A specific amount of the substance under investigation was carefully weighed using a precise analytical balance (Sartorius RC 210D). The mixture of salts and water was thoroughly mixed to ensure complete dissolution of the substance under investigation and left for 2 h to achieve equilibrium between the solution and the precipitate. Then, the solution was filtered, and the remaining precipitate was dried to a constant mass to remove the solvent. The difference between the initial mass of the substance m0 and the mass of the undissolved substance m1 allowed for the determination of the mass of the substance dissolved in the given mass of solvent.
Each measurement was taken in triplicate.

[6] = cited from earlier work

MIC (minimal inhibitory concentration) [1] | MIC (minimal inhibitory concentration) [2] | MIC (minimal inhibitory concentration) [3] | MIC (minimal inhibitory concentration) [4] | Compound | MBC (minimal bactericidal concentration) [1] | MBC (minimal bactericidal concentration) [2] | MBC (minimal bactericidal concentration) [3] | MBC (minimal bactericidal concentration) [4] | also measured
0.0078 mg/L | 1 mg/L | 0.25 mg/L | 0.125 mg/L | CCN1CCN(c2cc3c(cc2F)c(=O)c(C(=O)O)cn3C2CC2)CC1.O.O=C(O)c1cccc(C(=O)O)n1 [EFX·Py2,6DCA·H2O] | 0.015 mg/L | 2 mg/L | 0.25 mg/L | 0.25 mg/L | 
0.0078 mg/L | 1 mg/L | 0.25 mg/L | 0.125 mg/L | CCN1CCN(c2cc3c(cc2F)c(=O)c(C(=O)O)cn3C2CC2)CC1.O=C(O)c1ccnc(C(=O)O)c1 [EFX·Py2,4DCA] | 0.031 mg/L | 2 mg/L | 0.25 mg/L | 0.25 mg/L | 
0.0078 mg/L | 1 mg/L | 0.25 mg/L | 0.125 mg/L | CCN1CCN(c2cc3c(cc2F)c(=O)c(C(=O)O)cn3C2CC2)CC1.O=C(O)c1cccnc1C(=O)O [EFX·Py2,3DCA] | 0.031 mg/L | 2 mg/L | 0.25 mg/L | 0.25 mg/L | 

Further lines, the molecule ahead of its results:

Compound | MIC (minimal inhibitory concentration) [1] | MIC (minimal inhibitory concentration) [2] | MIC (minimal inhibitory concentration) [3] | MIC (minimal inhibitory concentration) [4] | MBC (minimal bactericidal concentration) [1] | MBC (minimal bactericidal concentration) [2] | MBC (minimal bactericidal concentration) [3] | MBC (minimal bactericidal concentration) [4] | also measured
CCN1CCN(c2cc3c(cc2F)c(=O)c(C(=O)O)cn3C2CC2)CC1.O.O=C(O)c1ccc(C(=O)O)nc1 [EFX·Py2,5DCA·H2O] | 0.0078 mg/L | 1 mg/L | 0.25 mg/L | 0.125 mg/L | 0.031 mg/L | 2 mg/L | 0.25 mg/L | 0.25 mg/L | 
O=C(O)c1ccc(C(=O)O)nc1 [Py2,5DCA, pyridine-2,5-dicarboxylic acid] |  |  |  |  |  |  |  |  | solubility in water [5]: 1.237 mg/mL (≈ 7400 µM)
O=C(O)CC(O)C(=O)O (stereo not drawn) [malic acid] |  |  |  |  |  |  |  |  | solubility in water ([6]; ref 41): 16.13 mg/mL (≈ 120000 µM)
CCN1CCN(c2cc3c(cc2F)c(=O)c(C(=O)O)cn3C2CC2)CC1 [EFX, 1-cyclopropyl-7-(4-ethyl-1-piperazinyl)-6-fluoro-1,4-dihydro-4-oxo-3-quinolinecarboxylic acid, reference compound] |  |  |  |  |  |  |  |  | MBC ([1]; ATCC25922, Mueller-Hinton medium, read-out: MBC (minimal bactericidal concentration)): 0.0078 mg/L (≈ 0.0217 µM); MIC ([1]; ATCC25922, Mueller-Hinton medium, read-out: MIC (minimal inhibitory concentration)): 0.0078 mg/L (≈ 0.0217 µM); MBC ([2]; ATCC15442, Mueller-Hinton medium, read-out: MBC (minimal bactericidal concentration)): 1 mg/L (≈ 2.78 µM); MIC ([2]; ATCC15442, Mueller-Hinton medium, read-out: MIC (minimal inhibitory concentration)): 0.5 mg/L (≈ 1.39 µM); MBC ([3]; ATCC6358, Mueller-Hinton medium, read-out: MBC (minimal bactericidal concentration)): 0.25 mg/L (≈ 0.696 µM); MIC ([3]; ATCC6358, Mueller-Hinton medium, read-out: MIC (minimal inhibitory concentration)): 0.0625 mg/L (≈ 0.174 µM); MBC ([4]; ATCC19615, Mueller-Hinton medium, read-out: MBC (minimal bactericidal concentration)): 0.125 mg/L (≈ 0.348 µM); MIC ([4]; ATCC19615, Mueller-Hinton medium, read-out: MIC (minimal inhibitory concentration)): 0.0625 mg/L (≈ 0.174 µM); solubility at 2 h ([5]; thermodynamic from solid): 0.176 mg/mL (≈ 490 µM); solubility in water ([6]; ref 34): 0.61 mg/mL (≈ 1700 µM); solubility in water ([6]; ref 41): 0.14 mg/mL (≈ 390 µM)
